What was measured:
[1] = supplied intravenously and perorally; known by intensive care physicians; cited from earlier work
[2] = Peroral self-administration of ammonium chloride by the inventor (respiratory gas exchange); assay type: in vivo, human; details: 80 mmoles ammonium chloride perorally
Text: Please replace the paragraph beginning at line 1 on page 5 with the following: portal area, especially at acidosis, can be utilized for synthesis of glutamine in the liver. […] When the patient treated is breathing by themself, the supply of ammonium will bring about a so-called compensatory hyperventilation. […] Furthermore, there is a report on the concentration of urea in the vitreous body of dead SIDS patients which is compared to autopsy material from children deceased from other causes at the same age [Blumenfeld T A, et al, Am J Clin Pathol, 71, 219-223 (1979)]. It appeared that children deceased from SIDS have lower urea values than children deceased from other causes. […] The low concentration of urea found is thus not inconsistent with the hypothesis put forward here.

Cl.N [ammonium chloride]
effect on base excess values [1]: lowers base excess values
duration of the increased carbon dioxide elimination [2]: ~1 h
effect on ventilation [2]: slight hyperventilation
increase in elimination of carbon dioxide [2]: 30 mL/min
resorption from the gastrointestinal tract [2]: resorbed very quickly
total carbon dioxide corresponding to the increased elimination ([2]; 30 ml/min for nearly 1h): about 80 mmoles
RQ (Respiratory Quotient = carbon dioxide emission / oxygen gas uptake) after administration ([2]; value at rest 0.82): 0.87

Source: patent publication US20030021856A1, “New use of ammonium compounds and/or urea” (priority 1996, published 2003)
